Assay results reported in ChEMBL document CHEMBL3508693 (2016).

Experiments:
[1] = Excretion (0-168h) of radioactivity in faeces following oral administration of [14C] aliskiren hemifumarate at 3 mg.Kg-1 level in marmoset; type: ADME, organism-based, Callithrix jacchus, Feces; details: in vivo
[2] = Excretion (168h) of radioactivity in faeces following intravenous administration of [14C] aliskiren hemifumarate at 10 mg.Kg-1 level in rat; type: ADME, organism-based, Lister-Hooded, Feces; details: in vivo
[3] = Plasma concentration of [14C] aliskiren hemifumarate in first 4h following single intravenous […] dose of [14C] aliskiren hemifumarate at 10 mg.Kg-1 level in mouse; type: ADME, organism-based, TgRasH2; details: in vivo
[4] = Excretion of radioactivity (0-24h) in urine following single oral dose of 500 mg.Kg-1 [14C] aliskiren hemifumarate in mouse; type: ADME, organism-based, TgRasH2; details: in vivo
[5] = Mean excretion of radioactivity (24-48h) in urine and faeces following single oral dose of 500 mg.Kg-1 [14C] aliskiren hemifumarate in mouse; type: ADME, organism-based, TgRasH2, Urine/Feces; details: in vivo
[6] = Excretion of radioactivity (0-72h) in faeces following single oral dose of 500 mg.Kg-1 [14C] aliskiren hemifumarate in mouse; type: ADME, organism-based, TgRasH2, Feces; details: in vivo
[7] = Cmax/dose (0-96h) of total radioactivity following oral administration of [14C] aliskiren hemifumarate at 100 mg.Kg-1 level in rat; type: ADME, organism-based, Albino HAN:WIST, Plasma; details: in vivo
[8] = Excretion of radioactivity (0-24h) in faeces following single oral dose of 100 mg.Kg-1 [14C] aliskiren hemifumarate in rat; type: ADME, organism-based, Albino HAN:WIST, Feces; details: in vivo
[9] = Mean excretion of radioactivity (0-24h) in urine and faeces following single oral dose of 100 mg.Kg-1 [14C] aliskiren hemifumarate in rat; type: ADME, organism-based, Albino HAN:WIST, Urine/Feces; details: in vivo
[10] = Excretion of radioactivity (48-72h) in faeces following single intravenous dose of 10 mg.Kg-1 [14C] aliskiren hemifumarate in rat; type: ADME, organism-based, Albino HAN:WIST, Feces; details: in vivo
[11] = Mean excretion of radioactivity (48-72h) in urine and faeces following single oral dose of 100 mg.Kg-1 [14C] aliskiren hemifumarate in rat; type: ADME, organism-based, Albino HAN:WIST, Urine/Feces; details: in vivo
[12] = Mean excretion of radioactivity (72-96h) in urine and faeces following single intravenous dose of 10 mg.Kg-1 [14C] aliskiren hemifumarate in rat; type: ADME, organism-based, Albino HAN:WIST, Urine/Feces; details: in vivo
[13] = Concentration of radioactivity in the colon wall following repeated oral administration of [14C] aliskiren hemifumarate at 100 mg.Kg-1 level studied at 2h after 10th dose in rat; type: ADME, organism-based, Albino HAN:WIST; details: in vivo
[14] = Concentration of radioactivity in the brown fat following repeated oral administration of [14C] aliskiren hemifumarate at 100 mg.Kg-1 level studied at 2h after 7th dose in rat; type: ADME, organism-based, Albino HAN:WIST, Brown adipose tissue; details: in vivo
[15] = Excretion of radioactivity (0-384h) in urine following 10 day repeated oral administration of [14C] aliskiren hemifumarate at 100 mg.Kg-1 level studied in rat; type: ADME, organism-based, Albino HAN:WIST; details: in vivo
[16] = Excretion of radioactivity (0-384h) in faeces following 10 day repeated oral administration of [14C] aliskiren hemifumarate at 100 mg.Kg-1 level studied in rat; type: ADME, organism-based, Albino HAN:WIST, Feces; details: in vivo
[17] = biological target: T1, CYP2C9 (Homo sapiens, UniProt P11712); test: Inhibitory activity of 20 uM SPP100 on 227 Pmoles of cDNA-derived CYP2C9 enzyme in microsome prepared from human lymphoblastoid cell line; type: ADME, microsomes; parameters: conc 20 uM, interact cpd conc 6 uM; details: probe diclofenac
T1 sequence (P11712 whole entry): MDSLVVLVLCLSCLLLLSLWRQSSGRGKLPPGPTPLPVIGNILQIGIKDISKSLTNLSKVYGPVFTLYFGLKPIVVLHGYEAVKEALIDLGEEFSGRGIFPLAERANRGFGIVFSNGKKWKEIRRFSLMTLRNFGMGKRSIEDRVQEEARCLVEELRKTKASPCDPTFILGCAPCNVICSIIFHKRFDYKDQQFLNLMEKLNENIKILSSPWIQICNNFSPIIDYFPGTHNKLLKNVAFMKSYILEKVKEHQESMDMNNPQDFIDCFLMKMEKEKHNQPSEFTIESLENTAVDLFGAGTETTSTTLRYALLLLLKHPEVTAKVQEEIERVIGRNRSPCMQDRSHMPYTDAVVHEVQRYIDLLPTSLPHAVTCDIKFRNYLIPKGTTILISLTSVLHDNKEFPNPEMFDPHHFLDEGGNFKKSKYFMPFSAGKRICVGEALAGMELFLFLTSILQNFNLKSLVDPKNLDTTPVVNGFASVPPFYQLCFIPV

[18] = biological target: T1, CYP2C9; test: Inhibitory activity of 20 uM SPP100 on 258 Pmoles of cDNA-derived CYP2C9 enzyme in microsome prepared from human lymphoblastoid cell line; type: ADME, microsomes; parameters: conc 20 uM, interact cpd conc 6 uM; details: probe diclofenac
[19] = biological target: T1, CYP2C9; test: Inhibitory activity of 200 uM SPP100 on 222 Pmoles of cDNA-derived CYP2C9 enzyme in microsome prepared from human lymphoblastoid cell line; type: ADME, microsomes; parameters: conc 200 uM, interact cpd conc 6 uM; details: probe diclofenac
[20] = biological target: T1, CYP2C9; test: Inhibitory activity of 200 uM SPP100 on 220 Pmoles of cDNA-derived CYP2C9 enzyme in microsome prepared from human lymphoblastoid cell line; type: ADME, microsomes; parameters: conc 200 uM, interact cpd conc 6 uM; details: probe diclofenac
[21] = biological target: CYP3A4 (Homo sapiens, UniProt P08684); test: Inhibitory activity of 200 µM SPP100 on cDNA-derived CYP3A4 enzyme in microsome prepared from human lymphoblastoid cell line; type: ADME, microsomes; parameters: conc 200 uM, interact cpd conc 120 uM; details: probe testosterone (120 uM)
Sequence of CYP3A4 (P08684 whole entry): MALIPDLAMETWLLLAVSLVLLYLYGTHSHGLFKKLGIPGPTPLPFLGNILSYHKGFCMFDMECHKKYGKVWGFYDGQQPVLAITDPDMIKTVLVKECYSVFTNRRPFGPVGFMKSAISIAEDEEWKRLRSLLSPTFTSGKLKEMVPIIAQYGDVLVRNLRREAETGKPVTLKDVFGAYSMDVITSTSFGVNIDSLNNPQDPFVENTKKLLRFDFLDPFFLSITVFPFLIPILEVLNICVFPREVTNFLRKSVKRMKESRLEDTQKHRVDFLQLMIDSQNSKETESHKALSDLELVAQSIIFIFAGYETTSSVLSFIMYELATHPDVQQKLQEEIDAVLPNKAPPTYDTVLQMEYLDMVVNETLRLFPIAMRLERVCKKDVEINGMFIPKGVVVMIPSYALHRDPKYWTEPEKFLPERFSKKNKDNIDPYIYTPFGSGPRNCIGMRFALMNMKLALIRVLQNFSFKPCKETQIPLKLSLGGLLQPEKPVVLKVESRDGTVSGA

[22] = % SPP100 recovered in hydrolysed following single intravenous administration of 10 mg.Kg-1 [14C] aliskiren hemifumarate in male rat; type: ADME, organism-based, HAN:WIST(SPF), Bile; details: in vivo
[23] = biological target: CYP2C19 (Homo sapiens, UniProt P33261); test: Inhibition of CYP2C19 in human liver microsomes from 10 healthy donors at 200 uM aliskiren (SPP100); type: ADME, Microsome; parameters: conc 200 uM; details: probe S-mephenytoin (4'-hydroxylation)
Sequence of CYP2C19 (P33261 whole entry): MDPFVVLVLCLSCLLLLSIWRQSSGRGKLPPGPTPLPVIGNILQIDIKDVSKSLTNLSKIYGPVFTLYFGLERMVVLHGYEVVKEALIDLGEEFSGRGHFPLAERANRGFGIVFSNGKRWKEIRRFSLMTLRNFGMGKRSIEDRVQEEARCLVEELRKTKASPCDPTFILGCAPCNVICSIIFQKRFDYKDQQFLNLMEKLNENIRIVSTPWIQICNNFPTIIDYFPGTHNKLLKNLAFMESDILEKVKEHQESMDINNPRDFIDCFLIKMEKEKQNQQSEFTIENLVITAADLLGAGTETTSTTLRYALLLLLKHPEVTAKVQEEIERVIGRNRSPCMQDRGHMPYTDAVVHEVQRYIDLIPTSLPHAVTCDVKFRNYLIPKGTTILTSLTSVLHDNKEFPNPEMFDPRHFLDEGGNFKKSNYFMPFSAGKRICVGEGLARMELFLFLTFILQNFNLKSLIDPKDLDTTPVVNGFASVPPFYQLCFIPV

[24] = Effect of 2 week oral dosing of aliskiren hemifumarate at 10 mg.Kg-1 level on hematological parameter values in male Callithrix jacchus; type: toxicity, organism-based, Plasma; details: marmoset, in vivo, 336 h
[25] = Effect of 2 week oral dosing of aliskiren hemifumarate at 100 mg.Kg-1 level on hematological parameter values in male Callithrix jacchus; type: toxicity, organism-based, Plasma; details: marmoset, in vivo, 336 h
[26] = Effect of 2 week oral dosing of aliskiren hemifumarate at 100 mg.Kg-1 level on blood urea nitrogen level in female Callithrix jacchus; type: toxicity, organism-based, Plasma; details: marmoset, 336 h
[27] = Effect of 2 week oral dosing of aliskiren hemifumarate at 50 mg.Kg-1 level on plasma creatinine level in male Callithrix jacchus; type: toxicity, organism-based; details: marmoset, 336 h
[28] = Cmaxspec of aliskiren hemifumarate following 2 week oral dosing of aliskiren hemifumarate at 10 mg.Kg-1 level studied on […] in male Callithrix jacchus; type: ADME, organism-based, Plasma; details: marmoset, in vivo, 336 h
[29] = Effect of 4 week oral dietary dosing of aliskiren hemifumarate at 2000 mg.Kg-1 level on histopathology of corpora lutea in female mouse; type: toxicity, organism-based, CB6F1-TGrasH2, Corpus luteum; details: in vivo, 672 h
[30] = Effect of 4 week oral dietary dosing of aliskiren hemifumarate at 2000 mg.Kg-1 level on density of uterine gland in female mouse; type: toxicity, organism-based, CB6F1-TGrasH2, Endometrial gland; details: in vivo, 672 h
[31] = Effect of 4 week oral dietary dosing of aliskiren hemifumarate at 1000 mg.Kg-1 level on spermatogenesis in male mouse; type: toxicity, organism-based, CB6F1-TGrasH2, Testis; details: in vivo, 672 h
[32] = Tmax of aliskiren hemifumarate following 4 week oral dietary dosing of aliskiren hemifumarate at 500 mg.Kg-1 level in female mouse; type: ADME, organism-based; details: CB6F1-TGrasH2, mouse, in vivo
[33] = Cmax of aliskiren hemifumarate following 4 week oral dietary dosing of aliskiren hemifumarate at 500 mg.Kg-1 level in male mouse; type: ADME, organism-based; details: CB6F1-TGrasH2, mouse, in vivo
[34] = Cmax of aliskiren hemifumarate following 4 week oral dietary dosing of aliskiren hemifumarate at 1500 mg.Kg-1 level in female mouse; type: ADME, organism-based; details: CB6F1-TGrasH2, mouse, in vivo
[35] = AUC (0-24h)/dose of aliskiren hemifumarate following 4 week oral dietary dosing of aliskiren hemifumarate at 1500 mg.Kg-1 level in female mouse; type: ADME, organism-based, CB6F1-TGrasH2, Plasma; details: in vivo
[36] = Cmax of aliskiren hemifumarate following repeated oral administration of [14C] aliskiren hemifumarate at 100 mg.Kg-1 level studied after 2h of dosing on day 1 in rat; type: ADME, organism-based, Albino HAN:WIST; details: in vivo, read-out: Cmax(1)
[37] = AUCss(tau)/dose of aliskiren hemifumarate following repeated oral administration of [14C] aliskiren hemifumarate at 100 mg.Kg-1 level studied in rat; type: ADME, organism-based, Albino HAN:WIST, Plasma; details: in vivo
[38] = Elimination half-life of aliskiren hemifumarate following repeated oral administration of [14C] aliskiren hemifumarate at 100 mg.Kg-1 level studied in rat; type: ADME, organism-based, Albino HAN:WIST; details: in vivo
[39] = Tmax (0-168h) of unlabeled aliskiren hemifumarate following single oral administration of aliskiren hemifumarate at 3 mg.Kg-1 level in marmoset; type: ADME, organism-based, Callithrix jacchus; details: plasma
[40] = AUC/dose (0-168h) of unlabeled aliskiren hemifumarate following single intravenous administration of aliskiren hemifumarate at 1 mg.Kg-1 level in marmoset; type: ADME, organism-based, Callithrix jacchus, Plasma; details: in vivo

For `COCCCOc1cc(C[C@@H](C[C@H](N)[C@@H](O)C[C@H](C(=O)NCC([14CH3])([14CH3])C(N)=O)C(C)C)C(C)C)ccc1OC.O=C(O)/C=C/C(=O)O`, the Radiolabel recovery [1] was 97.5%, the Radiolabel recovery [2] was 75% and the Compound recovery [3] was 94%. It also gave a Radiolabel recovery [4] of 0.47%, a Radiolabel recovery [5] of 10.51% and a Radiolabel recovery [6] of 1.98%. The Cmax normalised [7] was 0.0042 (umol/L)/(mg/kg), the Cmax normalised ([7]; iv, 10 mg/kg) was 2.12 (umol/L)/(mg/kg) and the Radiolabel recovery [8] was 2.96%. It also gave a Radiolabel recovery [9] of 36.1%, a Radiolabel recovery [10] of 4.69% and a Radiolabel recovery [11] of 16.3%. The Radiolabel recovery [12] was 2.24%, the Radiolabel recovery [13] was “OUTCOME = Observed, VALUE = Highest radioactivity concentration was observed” and the Radiolabel recovery [14] was “OUTCOME = Detected”. The Radiolabel recovery [15] was 0.3% and the Radiolabel recovery [16] was 102%.
In the case of `COCCCOc1cc(C[C@@H](C[C@H](N)[C@@H](O)C[C@H](C(=O)NCC(C)(C)C(N)=O)C(C)C)C(C)C)ccc1OC`, the inhibition at 20 µM [17] is reported as 13.1%, the inhibition at 20 µM [18] is reported as 1.3% and the inhibition at 200 µM [19] is reported as 14.9%. The inhibition at 200 µM [20] was 15.8%, the inhibition at 200 µM [21] was 11% and the Compound recovery [22] was 61.8%. It also gave an inhibition at 200 µM [23] of 42.5%.
With `COCCCOc1cc(C[C@@H](C[C@H](N)[C@@H](O)C[C@H](C(=O)NCC(C)(C)C(N)=O)C(C)C)C(C)C)ccc1OC.COCCCOc1cc(C[C@@H](C[C@H](N)[C@@H](O)C[C@H](C(=O)NCC(C)(C)C(N)=O)C(C)C)C(C)C)ccc1OC.O=C(O)/C=C/C(=O)O` [ALISKIREN FUMARATE] the Change in hematology [24] was “OUTCOME = Hematological parameter values did not differ from control values. No animals died during the study”, the Change in hematology [25] was “OUTCOME = Hematological parameter values did not differ from control values. No animals died during the study” and the BUN_CHANGE_BY [26] was 401%. For the same compound, the CREAT_CHANGE_BY [27] was 130%, the Cmax normalised [28] was 0.577 (ug/ml)/(mg/kg) and the “Change in corpora lutea” value [29] was “OUTCOME = Absence of corpora lutea. No animals died during the study”. The “Change in density of uterine gland” value [30] was “OUTCOME = Decreased. No animals died during the study”, the Change in spermatogenesis [31] was “OUTCOME = No abnormalities. No animals died during the study” and the Tmax [32] was 0 h. The Cmax [33] was 312 ng/mL, the Cmax [34] was 1020 ng/mL and the AUC normalised [35] was 3.65 ((ng/mL).hours)/(mg/kg/day). For the same compound, the Cmax [36] was 639 nM, the “AUCss(tau) normalised” value [37] was 10 (nmol.h.L-1)/(mg/kg) and the t1/2 [38] was 39.5 h. For the same compound, the Tmax [39] was 2 h and the AUC normalised [40] was 49 (umol.h/L)/(mg/kg).
